Data set [1] concerns MCA205 mouse sarcoma cell line. Nature of the data set: MTT assay on MCA205 cell line. Type of data set: cell-based. The following applies: MCA205 WT cells, 15 μM or 35 μM. The procedure: (§1) RNA was extracted and qRT-PCR was performed with primers amplifying the unspliced (intron) and the spliced (exon) globin-SL8-intron RNA. Data are given as mean ±SEM of the ratio of 2^−ΔΔCt intron and 2^−ΔΔCt exon of at least three independent experiments. […] Data are express as mean ±SEM of the percentage of viable cells compared to the control condition of at least three independent experiments. *P<0.05, **P<0.01, ***P<0.001 (unpaired student t test).
(§2) MCA205 mouse sarcoma cell line is cultured at 37° C. under 5% CO2 in RPMI 1640 medium (Life Technologies) in the presence of 1% glutamine, 1% sodium pyruvate, 1% non-essential amino-acids, 1% penicillin/streptomycin and 10% FBS (Life Technologies) under standard conditions. B16F10 mouse melanoma cell line, MRC5 human fibroblast cell line and A375 human melanoma cell line are cultured at 37° C. under 5% CO2 in DMEM medium (Life Technologies) containing 1% glutamine, 1% penicillin/streptomycin and 10% FCS under standard conditions. A549 human lung carcinoma cell line is cultured at 37° C. under 5% CO2 in DMEM/F12+Glutamax I in the presence of 1% Hepes, 1% sodium pyruvate and 10% FBS under standard conditions. Stable MCA205-Globin-SL8-intron cell line are cultured under the same condition as MCA205 cell line with additional 2 mg/ml G418 (geneticin from Life Technologies) for selection. Stable B16F10-Globin-SL8-intron cell line are cultured under the same condition as B16F10 cell line with additional 2 mg/ml G418 (geneticin from Life Technologies) for selection. The SL8/Kb-specific (B3Z) T-cell reporter hybridoma are cultured at 37° C. under 5% CO2 in RPMI 1640 medium (Life Technologies) in the presence of 1% glutamine, 0.1% β-galactosidase, 1% penicillin/streptomycin and 10% FCS under standard conditions.
(§3) MTT assay on MCA205 and B16F10 cell lines treated with 6.25 μM, 15 μM or 25 μM of isoginkgetin. Dare are given as the mean of the percentage of cell viability ±SEM from at least three independent experiments.
In general terms: Tetrazolium dyes change colour on reduction, which living cells bring about.

Another data set relates to B16F10 WT tumor. Kind of data set: Tumor challenge, B16F10 WT in immunocompetent C57BL/6 mice. The following applies: 18 mg/kg intraperitoneally, days 5, 10 and 15 (FIG. 11D). Type of data set: in vivo, mouse. The protocol: (§4) (A) Experimental settings. Growth of (B) sarcoma MCA205 or (C) melanoma B16F10 cells that both stably express the globin-SL8-intron construct or (D) MCA205 Wild Type (WT) or (E) B16F10 WT cells that were subcutaneously inoculated on the flank of immunocompetent C57BL/6 mice injected intraperitoneally with 12 mg/kg or 18 mg/kg of isoginkgetin at days 5, 10 and 15 after inoculation. Tumor size was assessed every 3 to 4 days until reaching the established ethical endpoints. Each line represents the tumor size in area (mm^2) of 6 mice in each group. Size in area (mm^2) of (F) MCA205 globin-SL8-intron, (G) B16F10 globin-SL8-intron, (H) MCA205 WT or (I) B16F10 WT tumors subcutaneously inoculated on the flank of immunodeficient Nu/Nu Nude mice injected intraperitoneally with 18 mg/kg of isoginkgetin at days 5, 10 and 15 after inoculation. Data are presented at the day before the endpoints are reached.
Data are given as mean ±SEM. *P<0.05, **P<0.01, ***P<0.001 (unpaired student t test). […] Tumor size was assessed every 3 to 4 days until reaching the established ethical endpoints. […]
The SL8 peptide has been widely shown to be highly immunogenic in vivo. […] At days 5, 10 and 15 after tumor inoculation, the mice were injected intraperitoneally with a define dose of isoginkgetin, and the tumor growth was monitored (FIG. 9A). […]

Data set [2] can be described thus: MTT assay on MCA205 cell line. Type of data set: cell-based, mouse. The following applies: mouse, MCA205 sarcoma cells, MTT, read-out: % cell viability (±SEM). The protocol:
as §1, §2, §3

Data set [3] has as its system B16F10 globin-SL8-intron tumors. Nature of the data set: Tumor challenge, B16F10 globin-SL8-intron in immunodeficient Nu/Nu nude mice. To be noted: 18 mg/kg intraperitoneally, days 5, 10 and 15. Type of data set: in vivo, mouse. The procedure:
as §4
Each line represents the tumor size in area (mm^2) of at least 6 mice in each group. The C right panel represents the tumor size at day 27. […]
Inventors then assessed the requirement of the immune response for isoginkgetin to reduce tumor growth Immunodeficient Nu/Nu nude mice were inoculated subcutaneously with either MCA205 or B16F10 cells that stably express the Globin-intron-SL8 or WT, and were treated with the same settings as previously described (FIG. 9A). […]

Consider `COc1ccc(-c2cc(=O)c3c(OC)cc(OP(=O)([O-])[O-])c(-c4cc(-c5cc(=O)c6c(OC)cc(OP(=O)([O-])[O-])cc6o5)ccc4OC)c3o2)cc1.[Na+].[Na+].[Na+].[Na+]` [IM2P2], for which, in data set [1], the “toxicity (MTT, percentage of viable cells compared to control)” value is “no toxicity”. Also, the tumor growth result in the data set on B16F10 WT tumor is “did not impact tumor growth”.

A word on the viability: it is a read-out of living cells in per cent, often relative to untreated cells. `COc1ccc(-c2cc(=O)c3c(O)cc(O)c(-c4cc(-c5cc(=O)c6c(O)cc(O)cc6o5)ccc4OC)c3o2)cc1` [Isoginkgetin, isoginkgetin]: in data set [2] (MCA205, 6.25 μM), the viability at 6.25 µM is 84.8%. Also, the viability at 15 µM in data set [2] (MCA205, 15 μM) turned out to be 56.3%. Also, the viability at 25 µM in data set [2] (MCA205, 25 μM) turned out to be 51.7%. The tumor growth result in data set [3] is recorded as “No effect”.
